# Like-named read-outs stand apart in the source and are kept apart here.
# Assays:
# mock-infected MT-4 cells = experiment: Cytotoxicity based on viability of mock-infected host cells (MTT method); format: cell-based; conditions: mock-infected MT-4 cells, MTT method, 4 or 5 days at 37° C.
# Summary of the method: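 Mock-infected MT-4 cells at 2.5×10^5 cells/ml were exposed to various concentrations of test compound, run in parallel with HIV-infected (1000 CCID50) cultures. After 4 or 5 days at 37° C., host-cell viability was read by MTT.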
# HIV = experiment: microbe, parasite or virus in culture; format: cell-based
# Summary of the method: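 MT-4 cells (2.5×10^5 cells/ml) infected with 1000 CCID50 HIV, added at once to compound dilutions, incubated 4 or 5 days at 37° C. Protection from virus-induced cytopathic effect read by MTT; cytotoxicity from MTT viability of mock-infected cells in parallel.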
# [1] = Human immunodeficiency virus 1, MT4, read-out: ED50
# [2] = Human immunodeficiency virus 1, MT4, HIV-infected MT-4 cells, MTT method, 4 or 5 days at 37° C., read-out: ED50 (the source's name)
Compound,EC50 (HIV; [2]) [µg/mL],CD50 (mock-infected MT-4 cells) [µg/mL],melting point [°C],EC50 (HIV; [1]) [µg/mL]
"Cc1cc(C)cc(Sc2c(C(C)C)c(=O)[nH]c(=O)n2Cc2cc(Br)cc(Br)c2)c1 [Example 86, 1-(3,5-Dibromobenzyl)-5-isopropyl-6-(3,5-dimethylphenyl)thio-2,4-pyrimidinedione]",–,2.11,225 to 226,0.094
"CCc1c(Oc2cc(C)cc(C)c2)n(Cc2cc(Br)cc(Br)c2)c(=O)[nH]c1=O [Example 87, 1-(3,5-Dibromobenzyl)-5-ethyl-6-(3,5-dimethylphenoxy)-2,4-pyrimidinedione]",–,>100.00,210 to 211,2.05
"Cc1cc(C)cc(Oc2c(C(C)C)c(=O)[nH]c(=O)n2Cc2cc(Br)cc(Br)c2)c1 [Example 88, 1-(3,5-Dibromobenzyl)-5-isopropyl-6-(3,5-dimethylphenoxy)-2,4-pyrimidinedione]",–,>100.00,244 to 246,0.42
"CCc1c(C(=O)c2cc(C)cc(C)c2)n(Cc2cc(Br)cc(Br)c2)c(=O)[nH]c1=O [Example 89, 1-(3,5-Dibromobenzyl)-5-ethyl-6-(3,5-dimethylbenzoyl)-2,4-pyrimidinedione]",–,8.75,234 to 236,0.09
"Cc1cc(C)cc(C(=O)c2c(C(C)C)c(=O)[nH]c(=O)n2Cc2cc(Br)cc(Br)c2)c1 [Example 90, 1-(3,5-Dibromobenzyl)-5-isopropyl-6-(3,5-dimethylbenzoyl)-2,4-pyrimidinedione]",–,8.90,223 to 225,0.12
"CCc1c(Sc2cc(C)cc(C)c2)n(Cc2c3ccccc3cc3ccccc23)c(=O)[nH]c1=O [Example 97, 1-(Anthracen-9-ylmethyl)-5-ethyl-6-(3,5-dimethylphenyl)thio-2,4-pyrimidinedione]",–,0.59,219 to 220,> 0.59
"Cc1cc(C)cc(Sc2c(C(C)C)c(=O)[nH]c(=O)n2Cc2c3ccccc3cc3ccccc23)c1 [Example 98, 1-(Anthracen-9-ylmethyl)-5-isopropyl-6-(3,5-dimethylphenyl)thio-2,4-pyrimidinedione]",–,1.75,129 to 131,> 1.75
"CCc1c(Oc2cc(C)cc(C)c2)n(Cc2c3ccccc3cc3ccccc23)c(=O)[nH]c1=O [Example 99, 1-(Anthracen-9-ylmethyl)-5-ethyl-6-(3,5-dimethyl-phenoxy)-2,4-pyrimidinedione]",–,4.12,243 to 245,> 4.12
"Cc1cc(C)cc(Oc2c(C(C)C)c(=O)[nH]c(=O)n2Cc2c3ccccc3cc3ccccc23)c1 [Example 100, 1-(Anthracen-9-ylmethyl)-5-isopropyl-6-(3,5-dimethyl-phenoxy)-2,4-pyrimidinedione]",–,2.02,224 to 226,> 2.02
"CCc1c(C(=O)c2cc(C)cc(C)c2)n(Cc2c3ccccc3cc3ccccc23)c(=O)[nH]c1=O [Example 101, 1-(Anthracen-9-ylmethyl)-5-ethyl-6-(3,5-dimethyl-benzoyl)-2,4-pyrimidinedione]",–,0.94,270 to 272,> 0.94
"Cc1cc(C)cc(C(=O)c2c(C(C)C)c(=O)[nH]c(=O)n2Cc2c3ccccc3cc3ccccc23)c1 [Example 102, 1-(Anthracen-9-ylmethyl)-5-isopropyl-6-(3,5-dimethyl-benzoyl)-2,4-pyrimidinedione]",–,4.44,273 to 275,> 4.44

# Second part, led by results:
EC50 (HIV; [2]) [µg/mL],Compound,CD50 (mock-infected MT-4 cells) [µg/mL],melting point [°C],EC50 (HIV; [1]) [µg/mL]
> 85.2,"CCc1c(Sc2cc(C)cc(C)c2)n(Cc2ccc3c(c2)C(=O)c2ccccc2C3=O)c(=O)[nH]c1=O [Example 103, 1-(Anthraquinon-2-ylmethyl)-5-ethyl-6-(3,5-dimethyl-phenyl)thio-2,4-pyrimidinedione]",85.19,195 to 197,–
> 100,"Cc1cc(C)cc(Sc2c(C(C)C)c(=O)[nH]c(=O)n2Cc2ccc3c(c2)C(=O)c2ccccc2C3=O)c1 [Example 104, 1-(Anthraquinon-2-ylmethyl)-5-isopropyl-6-(3,5-dimethyl-phenyl)thio-2,4-pyrimidinedione]",>100.00,120 to 122,–
0.52,"CCc1c(Oc2cc(C)cc(C)c2)n(Cc2ccc3c(c2)C(=O)c2ccccc2C3=O)c(=O)[nH]c1=O [Example 105, 1-(Anthraquinon-2-ylmethyl)-5-ethyl-6-(3,5-dimethylphenoxy)-2,4-pyrimidinedione]",5.30,233 to 235,–
0.49,"Cc1cc(C)cc(Oc2c(C(C)C)c(=O)[nH]c(=O)n2Cc2ccc3c(c2)C(=O)c2ccccc2C3=O)c1 [Example 106, 1-(Anthraquinon-2-ylmethyl)-5-isopropyl-6-(3,5-dimethylphenoxy)-2,4-pyrimidinedione]",9.49,246 to 248,–
0.026,"CCc1c(C(=O)c2cc(C)cc(C)c2)n(Cc2ccc3c(c2)C(=O)c2ccccc2C3=O)c(=O)[nH]c1=O [Example 107, 1-(Anthraquinon-2-ylmethyl)-5-ethyl-6-(3,5-dimethylbenzoyl)-2,4-pyrimidinedione]",2.38,143 to 146,–
0.017,"Cc1cc(C)cc(C(=O)c2c(C(C)C)c(=O)[nH]c(=O)n2Cc2ccc3c(c2)C(=O)c2ccccc2C3=O)c1 [Example 108, 1-(Anthraquinon-2-ylmethyl)-5-isopropyl-6-(3,5-dimethylbenzoyl)-2,4-pyrimidinedione]",14.41,156 to 158,–
0.015,"CCc1c(Sc2cc(C)cc(C)c2)n(Cc2ccccn2)c(=O)[nH]c1=O [Example 109, 1-(Pyridin-2-ylmethyl)-5-ethyl-6-(3,5-dimethylphenyl)thio-2,4-pyrimidinedione]",29.72,217 to 219,–
0.009,"Cc1cc(C)cc(Sc2c(C(C)C)c(=O)[nH]c(=O)n2Cc2ccccn2)c1 [Example 110, 1-(Pyridin-2-ylmethyl)-5-isopropyl-6-(3,5-dimethylphenyl)thio-2,4-pyrimidinedione]",9.61,194 to 196,–
0.081,"CCc1c(Oc2cc(C)cc(C)c2)n(Cc2ccccn2)c(=O)[nH]c1=O [Example 111, 1-(Pyridin-2-ylmethyl)-5-ethyl-6-(3,5-dimethylphenoxy)-2,4-pyrimidinedione]",>100.00,215 to 217,–
0.029,"Cc1cc(C)cc(Oc2c(C(C)C)c(=O)[nH]c(=O)n2Cc2ccccn2)c1 [Example 112, 1-(Pyridin-2-ylmethyl)-5-isopropyl-6-(3,5-dimethylphenoxy)-2,4-pyrimidinedione]",>100.00,220 to 223,–
0.0084,"CCc1c(C(=O)c2cc(C)cc(C)c2)n(Cc2ccccn2)c(=O)[nH]c1=O [Example 113, 1-(Pyridin-2-ylmethyl)-5-ethyl-6-(3,5-dimethylbenzoyl)-2,4-pyrimidinedione]",32.80,153 to 155,–
